“Also recorded” adds a separate entry of the source. Blank lines part the entries; values can stand above or below the compound they belong to.
Legend:
H358 cells = experiment: Cell-based rescreen of top virtual-screen hits, IC50 determination; conditions: Homo sapiens, NCI-H358, 0.1 μM to 10 μM, 72 hours
Description: Cell viability assay: Cell Counting Kit-8 (CCK-8) was purchased from Dojindo Molecular Technologies (Rockville, Md., USA). Cells were seeded on a 96-well plate and allowed to adhere in complete medium for 24 hours. Test compounds were added to 100 μl of medium at the indicated concentrations for 72 hours. Ten μl of the CCK-8 reagent were added to each well and absorbance at 450 nm was measured using a Tecan Spark 10M multimode microplate reader.
A virtual screen of a library of 1440 FDA-approved drugs using binding pockets in the N-terminal domain of PXN (FIG. 9H) identified several putative hits. The top 40 hits were then rescreened employing a cell-based assay to determine their efficacy using H358 cells.

H2009 cells [1] = experiment: Scratch wound healing assay; assay type: cell-based, human; conditions: for cell migration / wound healing: sublethal dose (carfilzomib 50-200 nM)
Description: (§1) Scratch wound healing assay. Cells were seeded on a 96-well Image Lock (Essen BioScience, Ann Arbor, Mich., USA) plate to reach 90% confluence by the next day. After cell adherence, 96 uniform wounds were created simultaneously using the WoundMaker (Essen BioScience) tool. Cells were washed once with serum-free medium and replenished with complete medium. To monitor wound healing, the plate was placed in the IncuCyte S3 Live-Cell Analysis System (Essen BioScience) and images were acquired every hour. Data analysis was generated by the IncuCyte software using a set confluence mask to measure relative wound density over time.
(§2) To discern the effect of knocking down ITGB4 on cell migration, H1993 and H2009 cells were transfected with the control or ITGB4-specific siRNA in 6-well plates and 12 hours post transfection, the cells were trypsinized and reseeded at high density in a 96-well plate. […] While both cell lines transfected with the control siRNA achieved 100% confluency of the wound within 48 hours, H1993 and 2009 cells in which ITGB4 was knocked down reached ˜60% and ˜80% confluency, respectively; neither cell line reached 100% confluency even after 96 h (FIG. 3F). Next the rate of wound closure was estimated. The rate was determined by dividing initial wound width by the time taken to close the wound. […] Similarly, in the case of the H2009 cells, the wound width closure rate dropped from 22 μm/h to about 18 μm/h (FIG. 3G). […] Additionally, up regulation of expression of other integrin β forms in response to ITGB4 knockdown was checked and an increase in the expression of ITGB1, ITGB2, and ITGB3 at mRNA level was found (FIG. 3I). The effect of ITGB3 silencing in the ITGB4 knocked down cells was further tested but no significant difference in their proliferation was found (FIG. 3J).

[2] = system: ITGB4 and PXN expression, γH2AX in H358 cells; experiment: Immunoblot after sublethal dose; assay type: cell-based, human; conditions: 72 hours
Description: West blotting: Cell lysates were prepared with 1×RIPA buffer (MilliporeSigma) and denatured in 1× reducing sample buffer at 95° C. for 5 minutes. Protein samples (15 μg) were run on 4-15% TGX gels (Bio-Rad, Hercules, Calif., USA) and transferred onto nitrocellulose membranes (Bio-Rad). Blots were blocked with 5% non-fat milk in TBS-T for 1 hour at room temperature and probed with primary antibody diluted in 2.5% BSA in TBS-T overnight at 4° C. After three washes with TBS-T, blots were incubated with HRP-conjugated secondary antibodies for 2 hours at room temperature. After three more washes, bands of interest were visualized via chemiluminescence using Western Bright ECL HRP substrate (Advansta, Menlo Park, Calif., USA) and imaged with the ChemiDoc MP imager (Bio-Rad).
Then a sublethal dose was used to determine the effect of these compounds on ITGB4 and PXN expression and caspase activity (FIG. 9I). […] These eleven compounds were further screened in the cisplatin-resistant cell line H2009. […] Further, carfilzomib was tested in another cisplatin-resistant cell line H1993.

H1993 cells [3] = experiment: IncuCyte cell proliferation and caspase-3/7 apoptosis assay; assay type: cell-based, human; conditions: for inhibition of cell proliferation: siRNA knockdown
Description: (§3) Cell proliferation and apoptosis assay. Cell proliferation assays were performed using cell lines stably transfected with NucLight Red Lentivirus (Essen Bioscience) to accurately visualize and count the nucleus of a single cell. Cells were seeded on a 96-well plate and allowed to adhere for 24 hours. Test compounds were added at indicated concentrations. Caspase-3/7 Green Apoptosis Reagent (Essen Bioscience) was also added as a green fluorescent indicator of caspase-3/7-mediated apoptotic activity. To monitor cell proliferation and apoptosis over time, the plate was placed in the IncuCyte S3 Live-Cell Analysis System (Essen BioScience) and images were acquired every 2 hours. Data analysis was generated by the IncuCyte software using a red fluorescence mask to accurately count each cell nucleus and a green fluorescence mask to measure apoptosis over time.
(§4) To determine whether the inhibition in cell proliferation associated with ITGB4 knockdown was due to enhanced apoptosis or reduced cell division (cytostatic), the Essen Bioscience Caspase-3/7 Green apoptosis assay in live cells was conducted. The NucView™[…], a DNA intercalating dye was used to enable quantification of apoptosis over time. The dye is impermeable and non-toxic to cells but once the cell membrane is permeabilized by caspase-3/7, the dye enters the cell and gets activated due to change in pH leading to the generation of green fluorescence that is then detected in real time and quantified using the IncuCyte System (FIG. 4B).
To address this, H1993 and H2009 cells were treated with cisplatin for 3 days and the changes were analyzed by immunoblotting. […] Next, H1993 and H2009 cells were transiently transfected with ITGB4 siRNA and 24 hours post-transfection they were treated with 10 μM cisplatin and cell proliferation and caspase activity were determined. […] However, in response to cisplatin in ITGB4 knockdown cells, the fold change dipped to <1, alluding to a cytotoxic effect (FIG. 4C). […] However, cell death was not due to caspase activation but appeared to be due to cell bursting which is seen in anoikis (FIGS. 3K and 3L). […]

H2009 cells [4] = experiment: as above; assay type: cell-based, human
Description: as §3, §4
To address this, H1993 and H2009 cells were treated with cisplatin for 3 days and the changes were analyzed by immunoblotting. […] Next, H1993 and H2009 cells were transiently transfected with ITGB4 siRNA and 24 hours post-transfection they were treated with 10 μM cisplatin and cell proliferation and caspase activity were determined. […] However, in response to cisplatin in ITGB4 knockdown cells, the fold change dipped to <1, alluding to a cytotoxic effect (FIG. 4C). […] However, cell death was not due to caspase activation but appeared to be due to cell bursting which is seen in anoikis (FIGS. 3K and 3L).

H1993 cells [5] = experiment: Scratch wound healing assay; assay type: cell-based, human; conditions: ITGB4 knockdown
Description: as §1, §2

IC50 (H358 cells): 1540 nM
Compound: CCS(=O)(=O)N1CCN(c2ccc(Nc3ncc(C(N)=O)c(NC4CC4)n3)cc2)CC1 [Cerdulatinib]

IC50 (H358 cells): 60 nM
Compound: COc1cc2ncnc(Nc3ccc(F)c(Cl)c3)c2cc1NC(=O)/C=C/CN1CCCCC1 [Dacomitinib]

IC50 (H358 cells): 1 nM
Compound: Cc1nc(Nc2ncc(C(=O)Nc3c(C)cccc3Cl)s2)cc(N2CCN(CCO)CC2)n1 [Dasatinib]

IC50 (H358 cells): 358 nM
Compound: C=CC(=O)Nc1cc(Nc2nccc(-c3cn(C)c4ccccc34)n2)c(OC)cc1N(C)CCN(C)C [Osimertinib]

IC50 (H358 cells): 60 nM
Compound: C=CC(=O)N1CCC(Oc2cc3c(Nc4ccc(Cl)c(Cl)c4F)ncnc3cc2OC)CC1 [Poziotinib]

IC50 (H358 cells): 0.9 nM
Compound: Cc1cc(Nc2cc(N3CCN(C)CC3)nc(Sc3ccc(NC(=O)C4CC4)cc3)n2)[nH]n1 [Tozasertib]

Further lines, the compound ahead of its results:

Compound: CN(C)C/C=C/C(=O)Nc1cc2c(Nc3ccc(F)c(Cl)c3)ncnc2cc1O[C@H]1CCOC1 [Afatinib]
IC50 (H358 cells): 9 nM

Compound: C#Cc1cccc(Nc2ncnc3cc(OC)c(OCCCCCCC(=O)NO)cc23)c1 [CUDC-101]
IC50 (H358 cells): 501 nM
cell migration / wound healing (H2009 cells [1]): less effective than carfilzomib in inhibiting wound healing; also recorded: did not
apoptosis, DNA damage (γH2AX) and ITGB4 expression [2]: induced apoptosis and caused DNA damage

Compound: CC(C)C[C@H](NC(=O)CNC(=O)c1cc(Cl)ccc1Cl)B(O)O [Ixazomib]
IC50 (H358 cells): 303 nM
cell migration / wound healing (H2009 cells [1]): less effective than carfilzomib in inhibiting wound healing; also recorded: impeded cell migration
apoptosis, DNA damage (γH2AX) and ITGB4 expression [2]: induced apoptosis and caused DNA damage

Compound: Cc1cnc(-c2ccccc2C(C)C)nc1NCc1ccc(-n2ccnn2)cc1 [ML323]
cell proliferation rates (H1993 cells [3]; 5 μM and 10 μM, 3 days): no significant change
cell proliferation rates (H2009 cells [4]; 5 μM and 10 μM, 3 days): no significant change

Compound: C1=C/COCc2cc(ccc2OCCN2CCCC2)Nc2nccc(n2)-c2cccc(c2)COC/1 [Pacritinib]
IC50 (H358 cells): 171 nM

Compound: ACAACACUCAGAAUCUAAAUUGGAC (SEQ ID NO: 13) (listed as RNA, chemistry not given here) [VDAC1 siRNA, siRNA against VDAC1]
increase in apoptosis (H2009 cells [4]; VDAC1 knockdown, 120 hours): 2 fold
decrease in cell proliferation (H2009 cells [4]; VDAC1 knockdown, by 72 hours): 50%

Compound: GCUUCGCUGUCGGAUUUCATT (SEQ ID NO: 6) (chemistry not given here) [PXN siRNA, siRNA against PXN, Life Technologies Cat 4392421]
inhibition of cell proliferation (H1993 cells [3]): 15%

Compound: GGAGCACAAAGCCAACUAACGARCA (SEQ ID NO: 11) (listed as RNA, chemistry not given here) [USP1 siRNA, siRNA against USP1, construct B, OriGene SR305052B]
inhibition of cell proliferation (H2009 cells [4]; USP1 knockdown, by 72 hours of seeding): > 2 fold

Compound: GUCAGUUCUGCGAGUAUGACAACTT (SEQ ID NO: 9) (chemistry not given here) [ITGB4 siRNA, siRNA against ITGB4, construct C, OriGene SR302473C]
wound confluency (H1993 cells [5]; control siRNA 100% within 48 hours): ~60%
wound closure rate (H1993 cells [5]; control ~25 μm/h): < 10 μm/h
wound width closure rate (H2009 cells [1]; ITGB4 knockdown, control 22 μm/h): about 18 μm/h
wound confluency (H2009 cells [1]; ITGB4 knockdown, control siRNA 100% within 48 hours): ~80%
fold change in cell count (H1993 cells [3]; ITGB4 knockdown or 10 μM cisplatin alone, cytostatic): ~1 fold
fold change in cell count (H1993 cells [3]; ITGB4 knockdown plus 10 μM cisplatin, cytotoxic): < 1 fold
increase in caspase activity compared to control (H1993 cells [3]; ITGB4 knockdown, by 24 hours): 5- to 6 fold
increase in caspase activity compared to control (H1993 cells [3]; ITGB4 knockdown, by 72 hours): 20 fold
increase in cell count (H1993 cells [3]; ITGB4 knockdown, by 72 hours): 0.2 fold
estimated doubling time (H1993 cells [3]; ITGB4 knockdown, control 72 hours): approximately 120 hours
drop in the fold change of cell count (H1993 cells [3]; knockdown plus cisplatin, compared to scramble siRNA cells treated with cisplatin): 40%
inhibition of cell proliferation (H1993 cells [3]): 50%
doubling time (H2009 cells [4]; ITGB4 knockdown, control approximately 25 hours): 40 h
